Residues, ends and D or L forms follow the SMILES beside them.
Assays:
dengue 2 protease [1] = target: T1, dengue 2 protease (Dengue virus type 2, UniProt P14340); assay: Dengue 2 protease inhibition, hydrolysis of Z-RR-MCA; assay type: biochemical, dengue 2 virus; design: unit not given here; details: 10 μM Z-RR-MCA, pH 9.0, 37° C., initial activity in UAF/min
T1 construct: The active site of the dengue protease is in the N-terminal part of NS3

dengue 2 protease [2] = target: T1, dengue 2 protease; assay: as above; assay type: biochemical, dengue 2 virus; design: Activity with inhibitors: unit not given here
Procedure: The active site of the dengue protease is in the N-terminal part of NS3 which is also a serine protease with catalytic triad Asp79-His51-Ser135, but requires […] (CF40) for activity; the inhibition reported here was studied on a […] (CF40-GGGGSGGGG-NS3; (SEQ ID NO:54)) which has also been structurally characterized [Erbel et al., 2006; Luo et al. 2008].
(§1) Substrate was added in a concentration 10 times the Km, and the inhibitor compounds of type C (C16-KGnK-C16, C16-KAnK-C16, and C16-RAnR-C16) were added in increasing concentrations (1.0, 5.0, 10.0, 20.0, 40.0 μL) from a stock solution of 2 mg in 1 mL DMSO. The residual activity was measured in a Hitachi F2500 spectrofluorimeter, and plots were fitted using the Grafit® software (Erithracus Software, Horley, Surrey, UK). All the assays were calculated by the Morrison equation for competitive inhibition (eq. 1, [Morrison, 1969]). The amount of substrate used for the tight binding titration experiments follow all the requirements, where [S]<<Km for all enzymes, so the Kiapp=Ki.
(§2) Range of Proteases Inhibited by Geminoids, Determination of Ki with Z-RR-MCA (Dengue 2 Protease) and Ac-RVRR-MCA (Furin) (SEQ ID NO:60).

dengue 2 protease [3] = target: T1, dengue 2 protease; assay: Dengue 2 protease inhibition in presence of Triton X-100 (detergent test, Nature Protocol); assay type: biochemical, dengue 2 virus; details: 0.05% Triton X-100; for Activity with 0.05% Triton: initial activity in UAF/min
Excerpt: A further investigation of the interactions of the geminoid inhibitors with biological membranes and with membrane-bound proteases is needed. […] The preparation and tests of peptides symmetrically, asymmetrically and singly alkylated with saturated, short (C6), and unsaturated (C18:1) alkyl tails are in progress.

DENV2 protease = target: T2, DENV2 protease (Dengue virus type 2, UniProt P14340); assay: DENV2 protease biochemical assay; details: 50 μM inhibitor
T2 construct: The active site of the dengue protease is in the N-terminal part of NS3

trypsin = target: T3, trypsin (Bos taurus, UniProt P00760); assay: Trypsin inhibition, fluorimetric enzyme assay; assay type: biochemical; details: 36.5° C., read-out: Residual Activity (%) Trypsin
T3 construct: gene PRSS1
T3 sequence (P00760 24-246): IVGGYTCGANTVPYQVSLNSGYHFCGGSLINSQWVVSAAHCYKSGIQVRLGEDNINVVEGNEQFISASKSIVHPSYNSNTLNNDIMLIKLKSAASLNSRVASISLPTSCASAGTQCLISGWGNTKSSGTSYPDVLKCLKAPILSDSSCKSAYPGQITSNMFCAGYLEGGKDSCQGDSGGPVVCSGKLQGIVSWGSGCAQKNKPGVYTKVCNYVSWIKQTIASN
Procedure: as §1, with “The enzyme was dissolved in 1 mL MES buffer (10 mM), 1 mM CaCl2, pH 7.0 at 36.5° C. Substrate” for “Substrate”
The first group of gemini-like peptide amphiphiles to be screened was that of C16-K(G or A)nK-C16 (compound type C, with R1=n-C15H31, R2=n-C16H33). […] The results of the Ki determination for trypsin, dengue 2 protease, and human furin are given in Table 1A; some general data for the inhibition by this type of compounds are given in Table 1B. For most compounds in Table 1 the Ki could be derived from competitive inhibition experiments. Judging from the Ki values with the relatively simple substrate Z-RR-MCA, the best inhibitors for dengue 2 protease contain alanine (A) rather than glycine (G).

DENV2 protease replicon = DENV2 protease replicon assay; assay type: cell-based; details: lowest concentration with observed activity in replicon assay
human furin = human furin (Homo sapiens, UniProt P09958); assay: Human furin inhibition, hydrolysis of Ac-RVRR-MCA; assay type: biochemical
Procedure: as §1, with “The enzyme was dissolved in 1 mL MES buffer (10 mM), 1 mM CaCl2, pH 7.0 at 36.5° C. Substrate” for “Substrate”
However, for furin we used a correction of Ki app, where [S]˜Km (eq. 2).
as §2

thrombin = thrombin (Homo sapiens, UniProt P00734); assay: Thrombin inhibition, fluorimetric enzyme assay; assay type: biochemical; details: 36.5° C., read-out: Residual Activity (%) Thrombin
Procedure: as §1, with “The enzyme was dissolved in 1 mL MES buffer (10 mM), 1 mM CaCl2, pH 7.0 at 36.5° C. Substrate” for “Substrate”, “Kiapp=Ki. […]” for “Kiapp=Ki.”

T1 sequence (P14340 1476-1653): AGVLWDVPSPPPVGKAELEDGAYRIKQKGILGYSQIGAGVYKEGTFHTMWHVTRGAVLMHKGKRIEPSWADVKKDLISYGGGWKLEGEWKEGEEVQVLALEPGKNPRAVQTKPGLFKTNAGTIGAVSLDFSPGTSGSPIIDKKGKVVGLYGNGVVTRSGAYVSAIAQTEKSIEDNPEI
Sequence of human furin (P09958 108-794): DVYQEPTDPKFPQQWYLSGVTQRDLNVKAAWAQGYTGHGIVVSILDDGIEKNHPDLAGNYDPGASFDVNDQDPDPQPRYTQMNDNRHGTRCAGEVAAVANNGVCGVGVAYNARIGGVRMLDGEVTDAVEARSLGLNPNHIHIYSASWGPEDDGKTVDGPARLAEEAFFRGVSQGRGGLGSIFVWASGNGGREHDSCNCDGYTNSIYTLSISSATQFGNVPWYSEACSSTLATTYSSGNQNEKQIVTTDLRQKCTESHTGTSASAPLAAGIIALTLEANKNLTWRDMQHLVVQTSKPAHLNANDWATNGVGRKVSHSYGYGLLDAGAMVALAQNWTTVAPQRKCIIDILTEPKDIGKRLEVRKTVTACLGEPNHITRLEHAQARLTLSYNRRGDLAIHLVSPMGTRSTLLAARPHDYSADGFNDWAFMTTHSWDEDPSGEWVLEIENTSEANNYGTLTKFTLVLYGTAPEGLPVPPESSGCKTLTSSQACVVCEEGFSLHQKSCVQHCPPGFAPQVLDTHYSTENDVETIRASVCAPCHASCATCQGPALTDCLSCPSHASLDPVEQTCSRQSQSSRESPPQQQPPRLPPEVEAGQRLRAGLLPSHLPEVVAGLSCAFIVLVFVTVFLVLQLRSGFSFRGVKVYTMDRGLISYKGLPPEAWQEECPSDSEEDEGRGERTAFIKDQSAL
T2 sequence (P14340 1476-1653): as the sequence (P14340 1476-1653) above
T2 sequence (P14340 1398-1437): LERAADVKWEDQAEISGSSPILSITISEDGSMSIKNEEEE

CCCCCCCCCCCCCCCCNC(=O)[C@H](CCCNC(=N)N)NC(=O)[C@H](C)NC(=O)[C@H](C)NC(=O)[C@H](C)NC(=O)[C@H](C)NC(=O)[C@H](CCCNC(=N)N)NC(=O)CCCCCCCCCCCCCCC [C16RA4RC16, n-C15H31C(O)-Arg-(la)4-Arg-(n-C16H33).2TFA] (HELM PEPTIDE1{[CCCCCCCCCCCCCCCC(=O)[*:2]].R.A.A.A.A.R.[CCCCCCCCCCCCCCCCN[*:1]]}$$$$V2.0)
Activity with inhibitors (dengue 2 protease [1]; 20 μM of inhibitor): 22 | Ki (dengue 2 protease [2]): 1400 nM | % recovery in presence of Triton (dengue 2 protease [3]; 20 μM of inhibitor): 68% | Activity with 0.05% Triton (dengue 2 protease [3]; 20 μM of inhibitor): 164

CCCCCCCCCCCCNC(=O)[C@H](CCCCN)NC(=O)[C@H](CCCCN)NC(=O)CCCCCCCCCCC [C12KKC12, n-C11H23C(O)-Lys-Lys-(n-C12H25).2TFA]
Activity with inhibitors (dengue 2 protease [1]; 30 μM of inhibitor): 0 | Ki (dengue 2 protease [2]): 132000 nM | % recovery in presence of Triton (dengue 2 protease [3]; 30 μM of inhibitor): 82% | Activity with 0.05% Triton (dengue 2 protease [3]; 30 μM of inhibitor): 180

CCCCCCCCCCCCCCCCNC(=O)[C@H](CCCCN)NC(=O)[C@H](C)NC(=O)[C@H](C)NC(=O)[C@H](CCCCN)NC(=O)CCCCCCCCCCCCCCC [C16-KAAK-C16] (HELM PEPTIDE1{[CCCCCCCCCCCCCCCC(=O)[*:2]].K.A.A.K.[CCCCCCCCCCCCCCCCN[*:1]]}$$$$V2.0)
inhibition at 50 µM (DENV2 protease): 97.7% | Ki (dengue 2 protease [2]): 630 nM | activity at 2.5 µM (dengue 2 protease [2]; 2.5 μM inhibitor, 36.5° C.): 89% | activity at 5 µM (dengue 2 protease [2]; 5 μM inhibitor, 36.5° C.): 79% | activity at 10 µM (dengue 2 protease [2]; 10 μM inhibitor, 36.5° C.): 68% | activity at 15 µM (dengue 2 protease [2]; 15 μM inhibitor, 36.5° C.): 45% | Activity with inhibitors (dengue 2 protease [2]; 25 μM of inhibitor, 10 μM Z-RR-MCA, pH 9.0, 37° C., initial activity in UAF/min): 0 | activity at 40 µM (dengue 2 protease [2]; 40 μM inhibitor, 36.5° C.): 10% | remaining activity at 15 µM (trypsin; 15 μM inhibitor): 64% | remaining activity at 40 µM (trypsin; 40 μM inhibitor): 20% | remaining activity at 80 µM (trypsin; 80 μM inhibitor): 7% | Replicon activity [μM] (1) (DENV2 protease replicon): 3.0 µM | activity at 2.5 µM (human furin; 2.5 μM inhibitor, 36.5° C.): 94% | activity at 5 µM (human furin; 5 μM inhibitor, 36.5° C.): 83% | activity at 10 µM (human furin; 10 μM inhibitor, 36.5° C.): 77% | activity at 15 µM (human furin; 15 μM inhibitor, 36.5° C.): 69% | activity at 40 µM (human furin; 40 μM inhibitor, 36.5° C.): 3% | Ki (human furin; 10 mM Mes.NaOH, pH 7.0, 2.35 μM Ac-RVRR-MCA, 37° C., read-out: Ki hFurin): 970 nM | % recovery in presence of Triton (dengue 2 protease [3]; 25 μM of inhibitor): 56% | Activity with 0.05% Triton (dengue 2 protease [3]; 25 μM of inhibitor): 100 | remaining activity at 15 µM (thrombin; 15 μM inhibitor): 80% | remaining activity at 40 µM (thrombin; 40 μM inhibitor): 55% | remaining activity at 80 µM (thrombin; 80 μM inhibitor): 39%

CCCCCCCCCCCCCCCCNC(=O)[C@H](CCCNC(=N)N)NC(=O)[C@H](CCCNC(=N)N)NC(=O)CCCCCCCCCCCCCCC [C16RRC16, n-C15H31C(O)-Arg-Arg-(n-C16H33).2TFA]
Activity with inhibitors (dengue 2 protease [1]; 20 μM of inhibitor): 48 | Ki (dengue 2 protease [2]): 800 nM | % recovery in presence of Triton (dengue 2 protease [3]; 20 μM of inhibitor): 74% | Activity with 0.05% Triton (dengue 2 protease [3]; 20 μM of inhibitor): 148

— US20220017572A1, “GEMINOID LIPOPEPTIDE COMPOUNDS AND THEIR USES” (Erasmus University Medical Center Rotterdam, priority 2016, published 2022)
